Non-standard residues stand in square brackets, D forms with d. Residues, ends and D or L forms follow the SMILES beside them. *: point of attachment. Nle = CCCC[C@H](N)C(=O)O; Cbz = O=C(OCc1ccccc1)*; CH2F = FC*
Tested on: retinal ganglion cells
Assay: Glutamic acid-induced apoptosis of cultured retinal ganglion cells (Hoechst 33342 or calcein AM/propidium iodide staining)
Type: cell-based, rat
Details: for apoptosis of retinal cells induced by glutamic acid (apoptosis-like cells): Hoechst 33342
Method: The primary culture of the retinal glia cells was carried out using two-day-old Sprague Dawley (SD) baby rats in accordance with a somewhat modified method (Hayashi et al., J. Biol. Chem. 2009) of the method of Barres et al. (Barres, et al., 1988). The isolated retinal glia cells (RGC) were suspended in a base culture medium of a RGC medium (1 mM glutamine, 5 μg/mL insulin, 60 μg/mL N-acetylcysteine, 62 ng/mL progesterone, 16 μg/mL putrescine, 40 ng/mL sodium selenite, 0.1 mg/mL bovine serum albumin, 40 ng/mL triiodothyronine, 0.1 mg/mL transferrin, 1 mM sodium pyruvate, 2% B27 supplement (Invitrogen, Carlsbad, Calif.), 10 μM forskolin (Sigma, St. Louis, Mo.), 50 ng/mL brain-derived neurotrophic factor (BDNF; PeproTech, Rocky Hill, N.J.), 50 ng/mL ciliary neurotrophic factor (CNTF; Peprotech), and 50 ng/mL basic fibroblast growth factor (bFGF; PeproTech). A 96-well plate was coated with poly-d-lysine (Sigma) and laminin (Sigma), and RGC was placed at the rate of 5,000 cells per well for the 96-well place, 5,000 cells per each culture insert for microdish, or 15,000 cells per dish for compartmentalized culture, followed by incubating for at least 10 days before experimentation.
In the figure, Cant represents a non-treated group, Glu represents a group with 300 μM glutamic acid added, and +glial LP represents a group with 300 μM glutamate+glia-cell-derived lipoprotein containing apolipoprotein E added. Glial LP was added in the concentration of 1 μg cholesterol/mL. After treatment, the rate of apoptosis-like cells was computed by observing the aggregation of the nuclei (a: nuclear staining with Hoechst 33342) or the sustained impermeability of esterase activity/membrane (b: calcein AM/Propidium Iodide staining) in 24 hours.
The induction and detection of apoptosis in RGC were performed in the manner as described below. Specifically, RGC was washed twice with Hanks' balanced salt solution (HBSS) containing 2.4 mM CaCl2 and 20 mM HEPES, but not containing magnesium, and incubated at 37° C. for 2 hours in a medium prepared by adding 300 μM glutamate and 10 μM glycine to the above Hanks' balanced salt solution. After treatment with glutamate, RGC was incubated at 37° C. for 22 hours in a RGC culture medium containing no forskolin, BDNF, CNTF and bFGF. In order to detect apoptosis, RGC was stained with 1 μg/mL of Hoechst 33342 (346-07951, Dojindo, Kumamoto, Japan) or 1 μg/mL of calcein-AM/propidium iodide (341-07381, Dojindo). The fluorescence images were observed by Olympus IX71 microscope. The fragmented or aggregated nuclei stained with the above Hoechst reagent were counted as apoptotic nuclei, and round and smooth nuclei were counted as sound nuclei. As the sound nuclei were not stained with propidium iodide, the nuclei stained with propidium iodide were counted as apoptotic nuclei. More than 300 nuclei were counted in each group.
The apoptosis of RGC was measured in the following manner. The RGC subjected to the primary incubated was incubated two times at 37° C. for 15 minutes using Hanks' Balanced Salt Solution (HBSS) containing 2.4 mM CaCl2 and 20 mM 4-(2-hydroxyethyl)-pyperazine-1-ethanesulfonic acid (HEPES) but containing no magnesium and then washed. […], the magnesium was removed from the washing solution. Thereafter, the RGC was treated or not treated with […] (a co-activating agent for the NMDA receptor) in HBSS containing 2.4 mM CaCl2 and 20 mM HEPES (without magnesium) and then incubated at 37° C. for 2 hours. A control (HBSS containing 2.4 mM CaCl2 and 20 mM HEPES (without containing magnesium)) or the RGC treated or not treated with glutamic acid was incubated at 37° C. for 22 hours in the same medium as used for the RGC (without forskolin, brain-derived neurotrophic factor, ciliary neurotrophic factor and basic fibroblast growth factor). […]

Molecule: CCCC[C@@H](C=O)NC(=O)[C@H](CC(C)C)NC(=O)[C@H](CC(C)C)NC(C)=O [ALLN, reference compound] (Ac-Leu-Leu-[Nle]-aldehyde)
- apoptosis of retinal cells induced by glutamic acid (apoptosis-like cells) (inhibitor 1 μM): inhibition of apoptosis

Molecule: C[C@]12N[C@H](Cc3ccccc31)c1ccccc12 [MK 801, reference compound]
- apoptosis of retinal cells induced by glutamic acid (apoptosis-like cells) (inhibitor 10 μM): inhibition of apoptosis

Molecule: COC(=O)C[C@H](NC(=O)[C@H](C)NC(=O)[C@@H](NC(=O)OCc1ccccc1)C(C)C)C(=O)CF [Z-VAD-FMK, reference compound] (Cbz-Val-Ala-Asp(OMe)-CH2F)
- apoptosis of retinal cells induced by glutamic acid (apoptosis-like cells) (inhibitor 20 μM): apoptosis inhibition

B1: α2-macroglobulin: α2-macroglobulin activated with methylamine; hinders neuroprotection by apoE-containing lipoprotein (protein, UniProt P01023 24-1474, looked up)
Alpha-2-macroglobulin: SVSGKPQYMVLVPSLLHTETTEKGCVLLSYLNETVTVSASLESVRGNRSLFTDLEAENDVLHCVAFAVPKSSSNEEVMFLTVQVKGPTQEFKKRTTVMVKNEDSLVFVQTDKSIYKPGQTVKFRVVSMDENFHPLNELIPLVYIQDPKGNRIAQWQSFQLEGGLKQFSFPLSSEPFQGSYKVVVQKKSGGRTEHPFTVEEFVLPKFEVQVTVPKIITILEEEMNVSVCGLYTYGKPVPGHVTVSICRKYSDASDCHGEDSQAFCEKFSGQLNSHGCFYQQVKTKVFQLKRKEYEMKLHTEAQIQEEGTVVELTGRQSSEITRTITKLSFVKVDSHFRQGIPFFGQVRLVDGKGVPIPNKVIFIRGNEANYYSNATTDEHGLVQFSINTTNVMGTSLTVRVNYKDRSPCYGYQWVSEEHEEAHHTAYLVFSPSKSFVHLEPMSHELPCGHTQTVQAHYILNGGTLLGLKKLSFYYLIMAKGGIVRTGTHGLLVKQEDMKGHFSISIPVKSDIAPVARLLIYAVLPTGDVIGDSAKYDVENCLANKVDLSFSPSQSLPASHAHLRVTAAPQSVCALRAVDQSVLLMKPDAELSASSVYNLLPEKDLTGFPGPLNDQDNEDCINRHNVYINGITYTPVSSTNEKDMYSFLEDMGLKAFTNSKIRKPKMCPQLQQYEMHGPEGLRVGFYESDVMGRGHARLVHVEEPHTETVRKYFPETWIWDLVVVNSAGVAEVGVTVPDTITEWKAGAFCLSEDAGLGISSTASLRAFQPFFVELTMPYSVIRGEAFTLKATVLNYLPKCIRVSVQLEASPAFLAVPVEKEQAPHCICANGRQTVSWAVTPKSLGNVNFTVSAEALESQELCGTEVPSVPEHGRKDTVIKPLLVEPEGLEKETTFNSLLCPSGGEVSEELSLKLPPNVVEESARASVSVLGDILGSAMQNTQNLLQMPYGCGEQNMVLFAPNIYVLDYLNETQQLTPEIKSKAIGYLNTGYQRQLNYKHYDGSYSTFGERYGRNQGNTWLTAFVLKTFAQARAYIFIDEAHITQALIWLSQRQKDNGCFRSSGSLLNNAIKGGVEDEVTLSAYITIALLEIPLTVTHPVVRNALFCLESAWKTAQEGDHGSHVYTKALLAYAFALAGNQDKRKEVLKSLNEEAVKKDNSVHWERPQKPKAPVGHFYEPQAPSAEVEMTSYVLLAYLTAQPAPTSEDLTSATNIVKWITKQQNAQGGFSSTQDTVVALHALSKYGAATFTRTGKAAQVTIQSSGTFSSKFQVDNNNRLLLQQVSLPELPGEYSMKVTGEGCVYLQTSLKYNILPEKEEFPFALGVQTLPQTCDEPKAHTSFQISLSVSYTGSRSASNMAIVDVKMVSGFIPLKPTVKMLERSNHVSRTEVSSNHVLIYLDKVSNQTLSLFFTVLQDVPVRDLKPAIVKVYDYYETDEFAIAEYNAPCSKDLGNA
- effect on the neuroprotective effects of the lipoprotein containing apoE (Glu+100 ng protein/mL E-LP in the presence of a2M): hinders the neuroprotective effects
